# Measured values taken from article PMC10005185, “Structure-guided engineering of a receptor-agonist pair for inducible activation of the ABA adaptive response to drought” (Science Advances, 2023).
# Read-outs that look alike come from different tables or passages of the source.
# Columns and labels:
# [1] = test system: ABI1 with CsPYL1^5m; assay type: biochemical, Citrus sinensis (CsPYL1^5m); Arabidopsis thaliana (ABI1)
# Procedure: (§1) His-tagged receptors and phosphatases were purified using nickel–nitrilotriacetic acid (Ni-NTA) affinity chromatography. Protein integrity was analyzed by SDS–polyacrylamide gel electrophoresis, followed by InstantBlue staining. Phosphatase activity was measured using p-Nitrophenyl Phosphate (pNPP) (25 mM) as substrate, 10 mM MnCl2,1 μM PP2C, and 2 μM of the indicated receptors. […] Assays were repeated twice. For dose-response experiments, IC50 values were obtained with GraphPad Prism 9 using a nonlinear regression curve fit. Each ligand concentration was tested in triplicate. Phosphatase activity of ABI1 was measured using RRA(phosphoT)VA peptide as a substrate, as described ([27]).
# [2] = molecular target: T1, HAB1 with PYL2 (Arabidopsis thaliana, UniProt O80992); experiment: PP2C inhibition assay, HAB1 with PYL2; assay type: biochemical; settings: 1 μM iSB09, PYL2
# T1 construct: His; made in house
# T1 sequence (O80992 whole entry): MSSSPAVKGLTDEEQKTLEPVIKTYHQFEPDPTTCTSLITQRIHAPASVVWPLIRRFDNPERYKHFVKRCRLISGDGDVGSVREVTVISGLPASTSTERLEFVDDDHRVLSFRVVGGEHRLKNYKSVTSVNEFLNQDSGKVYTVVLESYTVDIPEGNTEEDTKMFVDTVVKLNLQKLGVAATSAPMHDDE
# T1 sequence (Q9CAJ0 179-511 partner limits assumed): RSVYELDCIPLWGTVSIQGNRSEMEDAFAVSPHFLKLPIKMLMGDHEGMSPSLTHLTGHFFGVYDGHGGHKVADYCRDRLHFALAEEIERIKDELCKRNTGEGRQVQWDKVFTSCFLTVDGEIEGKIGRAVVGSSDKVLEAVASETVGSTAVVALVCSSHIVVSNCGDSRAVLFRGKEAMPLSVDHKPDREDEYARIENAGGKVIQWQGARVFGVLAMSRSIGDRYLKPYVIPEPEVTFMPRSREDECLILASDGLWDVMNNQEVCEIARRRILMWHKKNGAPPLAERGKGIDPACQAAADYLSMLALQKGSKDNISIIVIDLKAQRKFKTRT
# Procedure: (§2) His-tagged receptors and phosphatases were purified using nickel–nitrilotriacetic acid (Ni-NTA) affinity chromatography. Protein integrity was analyzed by SDS–polyacrylamide gel electrophoresis, followed by InstantBlue staining. Phosphatase activity was measured using p-Nitrophenyl Phosphate (pNPP) (25 mM) as substrate, 10 mM MnCl2,1 μM PP2C, and 2 μM of the indicated receptors. Proteins were incubated with the ligands for 10 min at room temperature. pNPP was then added to start the reactions, and the absorbance at 405 nm was monitored for 20 min in a ViktorX5 plate reader. Assays were repeated twice. For dose-response experiments, IC50 values were obtained with GraphPad Prism 9 using a nonlinear regression curve fit. Each ligand concentration was tested in triplicate. Phosphatase activity of ABI1 was measured using RRA(phosphoT)VA peptide as a substrate, as described ([27]).
# [3] = test system: Arabidopsis thaliana seeds (WT Col-0, CsPYL1 and CsPYL1^5m lines); experiment: Seed germination assay; assay type: in vivo; settings: for IC50: Arabidopsis thaliana, read-out: Germination IC50
# Procedure: For seed germination assays, seeds were stratified in the dark at 4°C for 3 days. Approximately 100 seeds of each genotype were sown on MS plates supplemented with six different ligand concentrations. The experiments were repeated three times. To score seed germination, radical emergence was analyzed at 24 hours after sowing.
# [4] = molecular target: T2, ΔNHAB1 with AtPYL5 (Arabidopsis thaliana, UniProt Q9FLB1); experiment: PP2C inhibition assay, HAB1 with AtPYL5; assay type: biochemical; settings: read-out: inhibition of HAB1
# T2 construct: His; made in house
# T2 sequence (Q9FLB1 whole entry, stated change not applied): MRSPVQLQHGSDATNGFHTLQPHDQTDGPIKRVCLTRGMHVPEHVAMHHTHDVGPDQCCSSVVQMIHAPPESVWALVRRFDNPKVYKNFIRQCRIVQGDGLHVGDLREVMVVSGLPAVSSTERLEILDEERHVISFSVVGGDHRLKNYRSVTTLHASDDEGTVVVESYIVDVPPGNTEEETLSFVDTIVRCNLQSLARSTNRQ
# Procedure: as §2
# [5] = molecular target: AtHAB1ΔN with CsPYL1^5m (Citrus sinensis, UniProt A0A067E666, F137I/T135L/T153I/V112L/V168A); experiment: PP2C inhibition assay, HAB1 with CsPYL1^5m; assay type: biochemical, Citrus sinensis (CsPYL1^5m); Arabidopsis thaliana (HAB1); settings: IC50 for inhibition of HAB1 (ΔNHAB1) in the presence of CsPYL1^5m, pNPP as substrate
# AtHAB1ΔN with CsPYL1^5m, sequence (A0A067E666 1-209 V112L/T135L/F137I/T153I/V168A): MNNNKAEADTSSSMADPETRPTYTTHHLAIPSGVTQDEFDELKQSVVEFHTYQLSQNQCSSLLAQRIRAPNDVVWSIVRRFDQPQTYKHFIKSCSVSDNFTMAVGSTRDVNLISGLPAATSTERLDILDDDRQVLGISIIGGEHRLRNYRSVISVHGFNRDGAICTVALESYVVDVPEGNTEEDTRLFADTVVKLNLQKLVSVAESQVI
# AtHAB1ΔN with CsPYL1^5m, sequence (Q9CAJ0 179-511 partner): as the sequence (Q9CAJ0 179-511 partner limits assumed) above
# Procedure: as §1
# [6] = molecular target: AtPYL5:ΔNHAB1 (Arabidopsis thaliana, UniProt Q9FLB1); experiment: Native red electrophoresis of ligand-induced ternary complex
# AtPYL5:ΔNHAB1, sequence (Q9FLB1 whole entry, stated change not applied): as the sequence (Q9FLB1 whole entry, stated change not applied) above
# Procedure: Electrophoresis was performed at a constant current of 25 mA for 150 min at 4°C. Proteins were detected in gel by InstantBlue staining, and band quantification was performed using the ImageJ software. To obtain apparent Kd values, the proportion of ternary complex formed (fraction bound) and the ABA or iSB09 free concentration in each lane were calculated and plotted as represented in Fig. 3 (E and F). Then, the dose-response curves were fitted to the classical Hill equation using the GraphPad Prism software.
# [7] = molecular target: T3, ABI1 with AtPYL1 (Arabidopsis thaliana, UniProt Q8VZS8); experiment: PP2C inhibition assay, ABI1 with AtPYL1; assay type: biochemical; settings: 1 µM phosphatase:2 µM receptor; read-out: IC50 of ABI1 with AtPYL1
# T3 construct: His; made in house
# T3 sequence (Q8VZS8 whole entry): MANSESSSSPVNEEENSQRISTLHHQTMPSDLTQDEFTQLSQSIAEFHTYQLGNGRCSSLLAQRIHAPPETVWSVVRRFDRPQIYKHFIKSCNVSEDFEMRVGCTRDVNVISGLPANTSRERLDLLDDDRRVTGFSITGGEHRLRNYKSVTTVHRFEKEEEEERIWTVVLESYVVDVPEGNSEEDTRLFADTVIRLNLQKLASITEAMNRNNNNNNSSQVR
# T3 sequence (P49597 whole entry partner): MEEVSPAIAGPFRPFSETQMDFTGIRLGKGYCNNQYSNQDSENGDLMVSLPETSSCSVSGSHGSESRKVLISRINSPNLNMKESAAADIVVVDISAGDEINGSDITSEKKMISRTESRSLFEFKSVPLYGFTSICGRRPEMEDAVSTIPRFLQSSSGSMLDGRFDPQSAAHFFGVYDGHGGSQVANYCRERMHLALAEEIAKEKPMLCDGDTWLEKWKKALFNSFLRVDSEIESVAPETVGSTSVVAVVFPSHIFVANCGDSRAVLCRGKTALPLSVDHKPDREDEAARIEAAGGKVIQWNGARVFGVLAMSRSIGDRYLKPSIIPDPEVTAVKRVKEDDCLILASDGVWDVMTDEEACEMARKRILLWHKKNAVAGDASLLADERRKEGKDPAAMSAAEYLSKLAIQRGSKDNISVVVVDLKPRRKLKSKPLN
# Procedure: as §2, with “([27]). […]” for “([27]).”
# (§3) (D) Dose response analysis of iSB09 or ABA-dependent inhibition of ABI1 (blue and black lines, respectively) in presence of either AtPYL1 or AtPYR1. Values (average of duplicates) show PP2C activity after incubation with the indicated concentration of ligand and receptor at 1:2 ratio (1 µM phosphatase:2 µM receptor). […]
# (§4) whereas with AtPYR1 was 200 nM and 213 nM, for ABA and iSB09, respectively. Ligands were assayed
# [8] = test system: Arabidopsis thaliana CsPYL1^5m plants; experiment: Drought resistance experiments; assay type: in vivo; settings: 50 μM
# Procedure: For drought assays under long-day conditions, seeds from WT Col-0 and pAlligator2-35[…] plants were grown in MS medium for 7 days. Then, seedlings were transferred to individual 0.18-liter pots containing equal amount of moisted soil composed of peat, vermiculite, and perlite at 1:0.5:0.5 ratio (v/v). Plants were grown under long-day conditions in a controlled environment growth chamber at 22°C under 16-hour light/8-hour dark photoperiod under well-watered conditions for 3 weeks. Then, watering was withheld for 14 days. […] The first application was performed the same day the watering was withheld, and the second one was performed 7 days later. Watering was restored and survival rate was measured 6 days after […]. Gravimetric analysis of water loss in pots was performed along the experiment. […] Pots were weighted at 7-day intervals. Pictures of the plants were taken at the beginning of the experiment, 26 days after water deprivation and 12 days after […]. Survival rate and foliar leaf area were measured 12 days after […]. For drought experiments, 6 to 10 plants per genotype and treatment were analyzed in each experiment. The experiment was performed twice.
# [9] = molecular target: T4, HAB1 with PYR1 (Arabidopsis thaliana, UniProt O49686); experiment: PP2C inhibition assay, HAB1 with PYR1; assay type: biochemical; settings: 1 μM iSB09, PYR1
# T4 construct: His; made in house
# T4 sequence (O49686 whole entry): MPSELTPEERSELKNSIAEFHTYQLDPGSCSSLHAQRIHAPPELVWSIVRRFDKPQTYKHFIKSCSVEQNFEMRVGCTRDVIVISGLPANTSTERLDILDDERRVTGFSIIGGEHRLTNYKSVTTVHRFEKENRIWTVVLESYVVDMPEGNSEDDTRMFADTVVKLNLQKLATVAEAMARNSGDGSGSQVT
# T4 sequence (Q9CAJ0 179-511 partner limits assumed): as the sequence (Q9CAJ0 179-511 partner limits assumed) above
# Procedure: as §2
# [10] = molecular target: T5, ABI1 with AtPYR1 (Arabidopsis thaliana, UniProt O49686); experiment: PP2C inhibition assay, ABI1 with AtPYR1; assay type: biochemical; settings: 1 µM phosphatase:2 µM receptor; read-out: IC50 of ABI1 with AtPYR1
# T5 construct: His; made in house
# T5 sequence (O49686 whole entry): as the sequence (O49686 whole entry) above
# T5 sequence (P49597 whole entry partner): as the sequence (P49597 whole entry partner) above
# Procedure: as §2, with “([27]). […]” for “([27]).”
# as §3, §4
smiles,measurement,setting,value
CCn1c(=O)cc(C)c2cc(CNS(=O)(=O)c3ccccc3)ccc21 [iSB09],sensitivity of ABI1 relative to HAB1 to iSB09-mediated CsPYL1^5m-dependent inhibition,[1],fivefold more sensitive
same,inhibition at 1 µM,[2],60 to 70%
same,IC50,[3]; WT Col-0,4.39 µM
same,IC50,[3]; line expressing CsPYL1,1.35 µM
same,IC50,[3]; line expressing CsPYL1^5m,0.29 µM
same,"inhibition of seed germination, iSB09 relative to iSB07",[3]; plants expressing CsPYL1^5m,threefold more effective
same,inhibition at 1 µM,[4],60 to 70%
same,IC50,[5],0.316 µM
same,Kd,[6],1.2 µM
same,IC50,[7],0.226 µM
same,drought resistance compared to mock-treated plants,"[8]; CsPYL1^5m plants, long-day conditions",markedly enhanced drought resistance
same,soil water consumption,"[8]; CsPYL1^5m plants, long-day, 10 days after stopping irrigation",40%
same,drought resistance compared to mock-treated plants,[8]; short-day conditions,enhanced resistance to drought
same,inhibition at 1 µM,[9],60 to 70%
same,IC50,[10],0.213 µM
